According to patent US20240382473A1, “Combination Therapies for Treatment of Myelodysplastic Syndrome” (priority 2019, published 2024):

What was measured:
MDS BMMC's = test: Cell viability following 48 hours treatment (FIGS. 26A/26B; IC50 in MDS BMMC's); assay type: cell-based
Source text: Additionally, an assay has been tested in bone marrow mononuclear cells (BMMCs) from AML and MDS patients to examine MCL-1 dependency prior to therapy with alvocidib. […] Combination studies are currently under investigation to determine whether enhanced anti-cancer activity is observed through pharmacologic downregulation of MCL-1 via CDK9 inhibition by alvocidib and upregulation of the MCL-1 antagonist NOXA after HMA exposure.
FIGS. 26A and 26B are scatter plots showing cell viability following 48 hours treatment at indicated concentrations of azacytidine (alone) or alvocidib (alone). FIG. 26A is a plot of cell viability following 48-hour treatment against indicated concentrations of azacitidine. […] FIG. 26B is a plot of cell viability following 48-hour treatment against indicated concentrations of alvocidib.

[1] = tested on: MCL-1 expression in MV4-11 cells; test: Western blot of MCL-1 protein in MV4-11 cells treated with alvocidib; assay type: cell-based
Source text: FIG. 9 is an illustration of a proposed mechanism by which alvocidib inhibits expression of MCL-1 by inhibiting CDK9.

[2] = tested on: RNA pol II phosphorylation and MCL-1 expression in MV-4-11 AML cells; test: Flow cytometry of RNA pol II phosphorylation and MCL-1 expression in MV-4-11 AML cells; assay type: cell-based; conditions: 24-hour treatment
[3] = tested on: pRpb1 and MCL1 in primary MDS BMMCs; test: pRpb1 and MCL1 levels in MDS patient cells after alvocidib; assay type: cell-based, human; conditions: relative to DMSO
Source text: It has been shown that alvocidib reduces RNA pol II phosphorylation and MCL-1 expression in vitro. […] Phospho-RNA polymerase (pRpb1) and MCL-1 (MCL1) levels are decreased after alvocidib treatment in MDS patient cells (FIG. 23). Levels are indicated as a percent relative to levels measured for a DMSO treated sample. Numbers in parenthesis represent concentrations in nM for each alvocidib (Alvo) treatment.
Additionally, an assay has been tested in bone marrow mononuclear cells (BMMCs) from AML and MDS patients to examine MCL-1 dependency prior to therapy with alvocidib. Approximately 25% of AML patient BMMCs and 60% of MDS patient BMMCs are MCL-1 dependent. Azacitidine and decitabine increased NOXA expression in AML cell line models. […] Combination studies are currently under investigation to determine whether enhanced anti-cancer activity is observed through pharmacologic downregulation of MCL-1 via CDK9 inhibition by alvocidib and upregulation of the MCL-1 antagonist NOXA after HMA exposure.

[4] = tested on: MCL-1 and NOXA expression in MV-4-11 cells; test: Western blot of NOXA and MCL-1 in MV-4-11 cells, alvocidib and azacytidine; assay type: cell-based; conditions: with azacytidine
Source text: FIG. 28A is an overview of an experimental used to evaluate an interaction between alvocidib and azacytidine with regard to MCL-1 and NOXA expression. FIG. 28B is a Western blot showing NOXA and MCL-1 levels in cells treated according to the experiment summarized in FIG. 28A at indicated drug concentrations.

MOLM13 xenograft model = test: MOLM13 xenograft model, tumor volume and survival; assay type: in vivo; conditions: aggressive daily dosing, tumor bearing mice
Description: FIGS. 31A and 31B show results from sequential dosing of alvocidib and HMAs in a MOLM13 model for MDS/sAML. HMA dosing sensitized AML cells to sequential dosing and improved survival in vivo. Alvocidib, azacytidine, and decitabine activity were assessed in the MOLM13 xenograft model. FIG. 31A is a plot of tumor volume over time and FIG. 31B is a plot of percent survival over time. Mice were dosed with alvocidib, qdx2, and/or an HMA, qdx3 on a weekly basis. Doses are indicated in mg/kg (mpk).
[…] show results from aggressive daily dosing of alvocidib and decitabine in the MOLM13 model. Tumor bearing mice were treated. Doses and schedule are indicated. FIG. 32A plots tumor volume following treatment and FIG. 32B plots body weight following treatment.

[5] = tested on: luciferase expressing MV4-11 model; test: Luciferase expressing MV4-11 AML xenograft model; assay type: in vivo; conditions: alvocidib alone
THP-1 AML model = test: THP-1 AML xenograft model; assay type: in vivo; conditions: alvocidib alone
OCI AML3 xenograft model = test: OCI AML3 xenograft model; assay type: in vivo
[6] = tested on: NOXA and MCL-1 expression in CD34+ MDS BMMNC; test: Pharmacodynamic marker study, Western blot NOXA/MCL-1 in CD34+ MDS BMMNC; assay type: cell-based, human; conditions: Patient 0219; azacitidine 0.3 or 0.6 μM 24 hours, then alvocidib 0.1 μM 6 hours
Description: A pharmacodynamic maker study was performed for azaditidine and alvocidib using MDS patient-derived BMMNC from Cureline. CD34^+ cells were isolated by CD34 MicroBead Kit (Miltenyi Biotec) and cultured in StemSpan™ SFEM II with StemSpan™ CD34^+ Expansion Supplement (STEMCELL Technologies). […] Protein was extracted using RIPA buffer with protease and phosphatase inhibitor cocktail. Protein expression was assessed by Western blot using NOXA (CST, Cat #14766S), MCL-1(CST, Cat #392245) and β-actin (CST, Cat #4967L) antibodies. Apoptotic activity was assessed by Caspase-Glo® 3/7 assay (Promega).

CD34+ MDS BMMNC = test: Caspase-Glo 3/7 apoptotic activity in CD34+ MDS BMMNC (Example 17 efficacy study); assay type: cell-based, human; conditions: azacitidine 100 nM 24 hours, alvocidib 100 nM 24 hours
Description: CD34^+ cells were isolated by CD34 MicroBead Kit (Miltenyi Biotec) and cultured in StemSpan™ SFEM II with StemSpan™ CD34^+ Expansion Supplement (STEMCELL Technologies). […] Apoptotic activity was assessed by Caspase-Glo® 3/7 assay (Promega).

clinical = conditions: human, in vivo; for AUC(0-t): 75 mg/m2, AUC(0-27); for Cmax: 75 mg/m2, Cmax; for Tmax: 75 mg/m2, Tmax
Source text: Plasma PK analyses for alvocidib and known metabolites, if any, and dose proportionality will be determined on Days 8 and 9 (for patients receiving alvocidib following DEC) or Days 10 and 11 (for patients receiving alvocidib following AZA) of Cycle 1 in all patients enrolled in the study, according to Table 5 or Table 6: […]

AML patients = test: NOXA priming of pre-treatment bone marrow versus response to alvocidib in AML patients; assay type: in vivo, human; conditions: patients with pre-treatment bone marrow NOXA priming greater than or equal to 40%
Source text: Furthermore, high NOXA Priming (MCL-1 dependence) is predictive of alvocidib sensitivity in AML patients. […] FIG. 16A is a box-plot showing that high NOXA priming (MCL-1 dependence) is predictive of alvocidib sensitivity in acute myeloid leukemia (AML) patients. The box-plot plots NOXA priming in complete remission and no response patient bone marrow samples taken from patients prior to being treated with alvocidib. […] NR=no response). The box-plot plots NOXA priming in complete remission and no response patient bone marrow samples taken from patients prior to being treated with 7+3 chemotherapy.

circulating blasts = conditions: three-day dosing, in the clinic; cited from earlier work

CN1CC[C@H](c2c(O)cc(O)c3c(=O)cc(-c4ccccc4Cl)oc23)[C@H](O)C1 [alvocidib]
IC50 (MDS BMMC's): ~100 nM | MCL-1 protein in response to alvocidib (Western blot) ([1]; FIG. 8 left panel): dose-dependent decrease | duration of knock-down of MCL-1 ([1]; MV4-11 cells, 80 nM alvocidib): exceeds 96 hours | inhibition of RNA pol II phosphorylation and MCL-1 expression [2]: dose-dependent | Phospho-RNA polymerase (pRpb1) and MCL-1 (MCL1) levels [3]: decreased | Phospho-RNA polymerase (pRpb1) and MCL-1 (MCL1) levels ([3]; listed as Alvocidib): dose dependent reduction | MCL-1 and NOXA levels (Western blot) [4]: inhibits upregulation of MCL-1 by azacytidine without affecting NOXA induction | tumor growth inhibition (% TGI) (MOLM13 xenograft model): 75.8% | total flux count [5]: complete abrogation | TGI (THP-1 AML model): 30.8% | tumor growth inhibition (% TGI) (OCI AML3 xenograft model): 55.0% | NOXA and MCL-1 protein expression (Western blot) versus DMSO [6]: suppressed MCL-1 expression | increase of apoptotic activity versus DMSO (CD34+ MDS BMMNC; Patient 0219): 31% | increase of apoptotic activity versus DMSO (CD34+ MDS BMMNC; Patient 1115 (high-risk MDS)): 240% | decrease of AUC going from cohort 4 to cohort 5 (clinical): 47.6% | decrease of Cmax going from cohort 4 to cohort 5 (clinical): 15.4% | AUC(0-t) (clinical): 3410 ng·h/mL | AUC(0-t) (clinical; Mean): 4080 ng·h/mL | Cmax (clinical): 868 ng/mL | Cmax (clinical; Mean): 924 ng/mL | half-life (clinical; 75 mg/m2, T1/2): 8.23 h | half-life (clinical; 75 mg/m2, T1/2, Mean): 8 h | Tmax (clinical): 0 h | Tmax (clinical; Mean): 0 h | complete recovery rate (AML patients): 100% | average reduction of circulating blasts (circulating blasts): greater than 75%
